Measurements: patent US7608585B2, “Compositions for inhibition of necrosis induced by a neurotrophin” (Neurotech Pharmaceuticals Co., Ltd., priority 2004, dated 2009)

Legend:
Type in all cases: cell-based, Rat
[1] = system: NADPH oxidase subunits gp91-phox, p47-phox, p67-phox; assay: Western blot of NADPH oxidase subunits; conditions: over 16-32 hr exposure
Procedure: Western blot experiments were performed to analyze protein levels of NADPH oxidase subunits using available antibodies for gp91-phox, p47-phox, and p67-phox.
Cortical cell cultures were lysed in a lysis buffer containing 50 mM Tris-HCl (pH 7.5), 1% Nonidet P-40, 150 mM NaCl, 0.5% deoxycholic acid, 0.1% sodium dodecyl sulfate (SDS), 1 mM PMSF (phenylmethylsulfonyl fluoride), 10 μg/ml pepstain A, and 100 μg/ml leupeptin. Cell lysates were centrifuged at 12,000 g for 10 min. approximately 25 μg of protein was subjected to electrophoresis on 12% SDS-polyacrylamide gel and transferred to a nitrocellulose membrane. The blot was incubated in 2.5% bovine serum albumin for 1 hr, incubated with goat polyclonal primary antibodies, anti-gp91-phox, anti-p67-phox, or anti-p47-phox antibodies (1:1000, Santa Cruz, Santa Cruz, Calif.), and then reacted with a biotinylated anti-goat secondary antibody. Immunoreactivity was detected with Vectastain ABC kit (Vector Laboratory, Burlingame, Calif., USA) and luminol for enhanced chemiluminescence Intron, Korea). The signal was analyzed by quantitative densitometry using LAS-1000 systems (Fuji Photofilm Co., Japan).

ROS in cortical neurons = assay: ROS imaging by oxidized DCDHF-DA (DCF) and hydroethidine fluorescence
Procedure: Cortical cell cultures (DIV 12-15) grown on glass bottom dishes were loaded with 10 μM dichlorodihydro fluorescein diacetate (DCDHF-DA) or 5 μM hydroethidium (Molecular Probes, Eugene, Oreg.) plus 2% Pluronic F-127 in HEPES-buffered control salt solution (HCSS) buffer containing (in mM): 120 NaCl, 5 KCl, 1.6 MgCl2, 2.3 CaCl2, 15 glucose, 20 HEPES, and 10 NaOH. Cultures were incubated for 20 min at 37° C., and washed three times with HCSS buffer. […] The fluorescence images were analyzed using a QuantiCell 700 system (Applied imaging, UK).
Superoxide production through activation of NADPH oxidase was analyzed by measuring the oxidation of HEt and DCDHF to ethidium and DCF, respectively, in cortical neurons after exposure to a sham operation, 100 ng/ml BDNF, or 100 ng/ml BDNF plus 3 nM DPI for 32 hr (FIG. 15).

[2] = system: NADPH oxidase activation (p47-phox, p67-phox); assay: Subcellular fractionation and western blot, translocation of p47-phox and p67-phox; conditions: exposed for 16-32 hr
Procedure: Activation of NADPH oxidase involves translocation of the cytosolic p47-phox and p67-phox subunits into the plasma membrane (Clark et al., 1989, Trans. Assoc. Am. Physicians., 102, 224-230). We examined if treatment with BDNF would activate NADPH oxidase through isolating the cytosol and membrane fraction.
Cortical cell cultures were washed with ice-cold PBS and resuspended in an isotonic buffer containing 10 mM HEPES, pH 8.0, 250 mM sucrose, 1 mM EDTA, 1 mM EGTA, 1 mM dithiothreitol (DTT), 2 mM PMSF, 100 μg/ml leupeptin, and 10 μg/ml pepstatin A. For isolating the cytosol and membrane fraction, the lysate was homogenized with a homogenizer (KONTE, Vieland, N.J.), centrifuged at 9,000 g for 10 min, and the supernatant was then centrifuged at 100,000 g for 1 hr.
The membrane fraction was obtained by resuspending the pellet with 50 μl lysis buffer and the cytosolic fraction was obtained from the supernatant. As shown in <EXAMPLE 7-4>, western blot experiments were performed to analyze protein levels of NADPH oxidase subunits using available antibodies for gp91-phox, p47-phox, and p67-phox.

[3] = system: Neuron-rich cortical cell cultures; assay: Serum deprivation-induced neuronal apoptosis, counting viable neurons
Procedure: For neuron-glia mixed cultures, 10 μM cytosine arabinoside (Ara C) was included to stop the overgrowth of non-neuronal cells to cultures at DIV 5-7 when glial cells were confluent underneath neurons. After 2 days, cultures were then fed with plating medium lacking fetal serum twice a week. Cultures were maintained at 37° C. in a humidified 5% CO2 incubator. For neuron-rich cultures (>95%), 2.5 μM Ara C was included to cultures at 2-3 days in vitro (DIV 2-3) as previously described (Gwag et al., 1997).
Mixed cortical cell cultures (DIV 12-14) were rinsed in serum free MS (MEM supplemented with 26.5 mM sodium bicarbonate and 21 mM glucose) and then exposed to various concentrations of NGF, BDNF or NT-3 in serum free MS. Neuronal cell death was analyzed by measuring the level of lactate dehydrogenase (LDH) released into the bathing medium. The percent neuronal death was normalized to the mean LDH value released after a sham control (defined as 0%) or continuous exposure to 500 μM NMDA for 24 hr (defined as 100%) The latter produces complete neuronal death within 24 hr. For experiments for serum deprivation, neuron-rich cortical cell cultures (DIV 7) were placed into serum free MS containing 1 μM MK-801 as described (Gwag et al., 1995). Neuronal death was analyzed 24 and 48 hr later by counting viable neurons excluding Trypan Blue satained.
Neuron-rich cortical cell cultures (DIV 7) were deprived of serum, alone (serum deprivation) or in the presence of 100 ng/ml BDNF, 100 ng/ml BDNF plus 3 nM DPI, 3 nM DPI, 100 ng/ml BDNF plus 100 μM trolox, or 100 μM trolox. Neuronal death was assessed 24 hr and 48 hr later by counting viable neurons.

[4] = system: NADPH oxidase (p22-phox, gp91-phox, p47-phox) mRNA; assay: RT-PCR of NADPH oxidase subunit mRNA
Procedure: RT-PCR experiments were performed to confirm the BDNF-sensitive genes derived from cDNA expression microarray, cytochrome b558 as it constitutes p22-phox and gp91-phox subunits of NADPH oxidase, a pro-oxidant enzyme generating superoxide from oxygen.
Total RNA (1 μg each) was incubated in a reaction mixture containing dNTP (2.5 mM each), RNasin (0.5 Unit), oligo dT primer (100 ng), and MMLV reverse transcriptase (200 Unit) at 37° C. for 1 hr. The samples were incubated at 92° C. for 10 min and transferred to 4° C. The reverse transcribed cDNA was subjected to PCR amplification. PCR was performed according to manufacturer's procedure (Takara Shuzo Co., Japan) sequentially (denaturation-annealing-extension) at following conditions: for p47-phox, 94° C. for 30 S, 55° C. for 30 S, and 72° C. for 60 S (28 cycles); for p22-phox (homologous to cytochrome b558 in microarray) and gp91-phox, 94° C. for 45 S, 60° C. for 60 S, and 72° C. for 120 S (33 cycles); for GAPDH, 94° C. for 35 S, 55° C. for 45 S, and 72° C. for 90 S (25 cycles). Primer sequences used were as follows (5′-3′): for p22-phox, […] (forward) and […] (reverse); for p47-phox, CAGCCA […] (forward) and […] (reverse); for gp91-phox, […] TG (forward) and […] (reverse); for GAPDH, […] (forward) and […] (reverse). PCR products were run on a 1.2% agarose gel and visualized with ethidium bromide. The relative amount of mRNA was measured using LAS-1000 systems (Fuji Photofilm Co., Japan), normalized to levels of GAPDH mRNA. DNA sequencing was performed with Big Dye Terminator Chemistry from Perkin-Elmer Applied Biosystems on ABI PRISM™ 377 DNA sequencer (Foster City, Calif.)

[5] = system: p47-phox and p67-phox in cortical cell cultures; assay: Immunocytochemistry of p47-phox and p67-phox; conditions: 32 hr following exposure
Procedure: Immunocytochemistry was performed to identify which types of cells express NADPH oxidase in cortical cell cultures containing neurons and glia.
Cortical cell cultures (DIV 12-14) grown on glass bottom dishes were fixed in 4% paraformaldehyde for 30 min, incubated in 10% horse serum for 1 hr, and double-immunolabeled with a mouse monoclonal antibody against NeuN (1:400 dilution, Chemicon, Temecula, Calif.) and a goat polyclonal antibody against p47-phox or p67-phox (1:200 dilution, Santa Cruz, Santa Cruz, Calif.) for 2-4 hr. Cultures were then reacted with fluorescein isothiocyanate-conjugated anti-goat IgG (1:200 dilution, Organon Teknika Corp., NC) and Texas red-conjugated anti-mouse IgG (1:200, Vector Laboratory, Burlingame, Calif.) for 1-2 hr. The fluorescence images were collected and analyzed with a fluorescence microscopy (Zeiss, Germany) equipped with the Real-14™ precision digital camera (Apogee Instrument, Tucson, Ariz.) and ImagePro Plus Plug-in (Silver Spring, Md.).

- mRNA levels of p22-phox and gp91-phox ([4]; 4 hr later, lasted over the next 12 hr): maximally increased
- mRNA levels of p47-phox subunit ([4]; from 30 min following administration): increased gradually
- mRNA levels of p22-phox and gp91-phox ([4]; within 2 hr after treatment): increase
Substance: BDNF: brain-derived neurotrophic factor, a neurotrophin
- Protein levels of NADPH oxidase subunits gp91-phox, p47-phox, and p67-phox [1]: increased
- Oxidation of HEt and DCDHF (ROS in cortical neurons; 100 ng/ml BDNF for 32 hr): increased oxidation
- Fluorescent intensity of DCF in cortical neurons (ROS in cortical neurons; exposed for 16 hr): increased
- Intraneuronal levels of ROS ([ROS]i) (ROS in cortical neurons; over 24-32 hr): further increased
- Levels of p47-phox and p67-phox in cytosolic and membrane fraction [2]: reduced in the cytosolic fraction and increased in the membrane fraction
- Protective effects of BDNF following serum deprivation ([3]; 100 ng/ml, within 48 hrs): disappeared
- Neuronal apoptosis ([3]; serum deprivation, 100 ng/ml BDNF): prevented neuronal apoptosis
- Signals of p47-phox and p67-phox (immunoreactivity) [5]: increased exclusively in neurons
